According to patent US20070249590A1, “Substituted indolo[2,3-a]pyrrolo[3,4-c]carbazole compounds useful in treating kinase disorders” (priority 2005, published 2007):

Target: T1, JAK3 (JH1 and JH2 domain) (Homo sapiens, UniProt P52333)
T1 sequence (P52333 521-1111 limits assumed): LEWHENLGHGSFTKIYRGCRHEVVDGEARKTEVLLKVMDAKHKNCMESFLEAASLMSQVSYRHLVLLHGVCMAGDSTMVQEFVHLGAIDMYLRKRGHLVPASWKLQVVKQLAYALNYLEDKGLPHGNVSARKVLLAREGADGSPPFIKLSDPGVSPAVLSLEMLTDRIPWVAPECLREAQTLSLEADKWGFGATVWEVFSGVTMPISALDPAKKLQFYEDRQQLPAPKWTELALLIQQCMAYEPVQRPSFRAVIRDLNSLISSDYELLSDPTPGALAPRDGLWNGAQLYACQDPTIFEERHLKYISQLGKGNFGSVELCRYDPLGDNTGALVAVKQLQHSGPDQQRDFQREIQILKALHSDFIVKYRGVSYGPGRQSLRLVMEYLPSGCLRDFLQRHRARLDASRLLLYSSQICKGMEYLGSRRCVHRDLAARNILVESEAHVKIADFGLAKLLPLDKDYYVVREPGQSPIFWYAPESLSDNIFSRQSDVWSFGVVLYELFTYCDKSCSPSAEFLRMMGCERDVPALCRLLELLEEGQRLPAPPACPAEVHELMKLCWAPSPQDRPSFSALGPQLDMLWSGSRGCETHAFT
Assay: JAK3 Kinase Assay (ELISA of peptide substrate phosphorylation)
Type: biochemical
Settings: purified JAK3 enzyme, 10 μM ATP, biotinylated peptide substrate, 1 hour at room temperature
Summary of the method: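 Sf21-baculovirus-expressed JAK3 (JH1+JH2), glutathione-bead purified, with biotinylated peptide substrate (in buffer containing 10 μM ATP) in HEPES pH 7.5/MgCl2/DTT, 1 h RT. Product was captured on Neutravidin, detected with HRP anti-phosphotyrosine (PY99)/TMB, OD 450/650 nm. Triplicate 16-point half-log series from 200 μM gave IC50; otherwise % inhibition at 1 μM.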

In order of rising IC50:
1. O=C1NCc2c1c1c3cc(O)ccc3n3c1c1c2c2ccccc2n1CC(O)C(O)C3 (centres unmarked) [Cpd 189, 3-hydroxy-12,13-(2,3-dihydroxy-butan-1,4-yl)-6,7,12,13-tetrahydro-5-oxo-5H-indolo[2,3-a]pyrrolo[3,4-c]carbazole]  0.003 µM
2. Nc1ccc2c(c1)c1c3c(c4c5ccccc5n5c4c1n2CC(O)C(O)C5)CNC3=O (centres unmarked) [Cpd 192, 3-amino-12,13-(2,3-dihydroxy-butan-1,4-yl)-6,7,12,13-tetrahydro-5-oxo-5H-indolo[2,3-a]pyrrolo[3,4-c]carbazole]  0.007 µM
3. O=C1NCc2c1c1c3cc(Br)ccc3n3c1c1c2c2ccccc2n1CC(O)C(O)C3 (centres unmarked) [Cpd 188, 3-bromo-12,13-(2,3-dihydroxy-butan-1,4-yl)-6,7,12,13-tetrahydro-5-oxo-5H-indolo[2,3-a]pyrrolo[3,4-c]carbazole]  0.034 µM
4. CN(C)CCNC(=O)OCC1(O)Cn2c3ccccc3c3c4c(c5c6ccccc6n(c5c32)C1)C(=O)NC4 (centres unmarked) [Cpd 173, 12,13-{2-hydroxy-2-[(2-dimethylamino-ethyl)carbamoyloxymethyl]-propan-1,3-yl}-6,7,12,13-tetrahydro-5-oxo-5H-indolo[2,3-a]pyrrolo[3,4-c]carbazole]  0.069 µM
5. O=C1NCc2c1c1c3ccccc3n3c1c1c2c2ccccc2n1CCC(OC(=O)N1CCOCC1)CC3 (centres unmarked) [Cpd 185, 12,13-[3-(morpholin-4-yl-carbonyloxy)-pentan-1,5-yl]-6,7,12,13-tetrahydro-5-oxo-5H-indolo[2,3-a]pyrrolo[3,4-c]carbazole]  0.069 µM
6. O=C1NCc2c1c1c3cc([N+](=O)[O-])ccc3n3c1c1c2c2ccccc2n1CC(O)C(O)C3 (centres unmarked) [Cpd 191, 3-nitro-12,13-(2,3-dihydroxy-butan-1,4-yl)-6,7,12,13-tetrahydro-5-oxo-5H-indolo[2,3-a]pyrrolo[3,4-c]carbazole]  0.115 µM
7. CC(C)(C)OC(=O)NC1CCN(C(=O)OCC2Cn3c4ccccc4c4c5c(c6c7ccccc7n(c6c43)C2)C(=O)NC5)CC1 (centres unmarked) [Cpd 172, 12,13-(2-{[4-(t-butoxycarbonylamino)piperidin-1-yl]carbonyloxymethyl}-propan-1,3-yl)-6,7,12,13-tetrahydro-5-oxo-5H-indolo[2,3-a]pyrrolo[3,4-c]carbazole]  0.12 µM
8. CN1CCN(Cc2ccc3c(c2)c2c4c(c5c6ccccc6n6c5c2n3CC(O)C(O)C6)CNC4=O)CC1 (centres unmarked) [Cpd 193, 3-(4-methyl-piperazin-1-ylmethyl)-12,13-(2,3-dihydroxy-butan-1,4-yl)-6,7,12,13-tetrahydro-5-oxo-5H-indolo[2,3-a]pyrrolo[3,4-c]carbazole]  0.135 µM
9. CC(C)(C)OC(=O)N1CCC(NC(=O)OCC2(O)Cn3c4ccccc4c4c5c(c6c7ccccc7n(c6c43)C2)C(=O)NC5)CC1 (centres unmarked) [Cpd 177, 12,13-{2-hydroxy-2-[(1-t-butoxycarbonyl-piperidin-4-yl)carbamoyloxymethyl]-propan-1,3-yl}-6,7,12,13-tetrahydro-5-oxo-5H-indolo[2,3-a]pyrrolo[3,4-c]carbazole]  0.143 µM
10. O=C(NC1CCNCC1)OCC1(O)Cn2c3ccccc3c3c4c(c5c6ccccc6n(c5c32)C1)C(=O)NC4 (centres unmarked) [Cpd 178, 12,13-[2-hydroxy-2-(piperidin-4-yl-carbamoyloxymethyl)-propan-1,3-yl]-6,7,12,13-tetrahydro-5-oxo-5H-indolo[2,3-a]pyrrolo[3,4-c]carbazole]  0.154 µM
11. COc1ccccc1CNC(=O)OCC1(O)Cn2c3ccccc3c3c4c(c5c6ccccc6n(c5c32)C1)C(=O)NC4 (centres unmarked) [Cpd 174, 12,13-{2-hydroxy-2-[(2-methoxy-benzyl)carbamoyloxymethyl]-propan-1,3-yl}-6,7,12,13-tetrahydro-5-oxo-5H-indolo[2,3-a]pyrrolo[3,4-c]carbazole]  0.166 µM
12. NC1CCN(C(=O)OCC2(O)Cn3c4ccccc4c4c5c(c6c7ccccc7n(c6c43)C2)C(=O)NC5)CC1 (centres unmarked) [Cpd 176, 12,13-{2-hydroxy-2-[(4-amino-piperidin-1-yl)carbonyloxymethyl]-propan-1,3-yl}-6,7,12,13-tetrahydro-5-oxo-5H-indolo[2,3-a]pyrrolo[3,4-c]carbazole]  0.177 µM
13. CN(C)CCCNC(=O)OC1CCn2c3ccccc3c3c4c(c5c6ccccc6n(c5c32)CC1)C(=O)NC4 (centres unmarked) [Cpd 186, 12,13-{3-[(3-dimethylamino-prop-1-yl)carbamoyloxy]-pentan-1,5-yl}-6,7,12,13-tetrahydro-5-oxo-5H-indolo[2,3-a]pyrrolo[3,4-c]carbazole]  0.178 µM
14. O=C1NCc2c1c1c3ccccc3n3c1c1c2c2ccccc2n1CC(COC(=O)N1CCN(Cc2ccc4c(c2)OCO4)CC1)C3 (centres unmarked) [Cpd 170, 12,13-(2-{[4-(benzo[1,3]dioxol-5-ylmethyl)piperazin-1-yl]carbonyloxymethyl}-propan-1,3-yl}-6,7,12,13-tetrahydro-5-oxo-5H-indolo[2,3-a]pyrrolo[3,4-c]carbazole]  0.202 µM
15. CC(C)(C)OC(=O)NC1CCN(C(=O)OCC2(O)Cn3c4ccccc4c4c5c(c6c7ccccc7n(c6c43)C2)C(=O)NC5)CC1 (centres unmarked) [Cpd 175, 12,13-{2-hydroxy-2-[(4-t-butoxyamido-piperidin-1-yl)carbonyloxymethyl]-propan-1,3-yl}-6,7,12,13-tetrahydro-5-oxo-5H-indolo[2,3-a]pyrrolo[3,4-c]carbazole]  0.244 µM
16. CN1CCC(NCc2ccc3c(c2)c2c4c(c5c6ccccc6n6c5c2n3CC(O)C(O)C6)CNC4=O)CC1 (centres unmarked) [Cpd 195, 3-[(1-methyl-piperidin-4-yl)aminomethyl]-12,13-(2,3-dihydroxy-butan-1,4-yl)-6,7,12,13-tetrahydro-5-oxo-5H-indolo[2,3-a]pyrrolo[3,4-c]carbazole]  0.284 µM
17. O=C1NCc2c1c1c3cc(CN4CCOCC4)ccc3n3c1c1c2c2ccccc2n1CC(O)C(O)C3 (centres unmarked) [Cpd 194, 3-(morpholin-4-ylmethyl)-12,13-(2,3-dihydroxy-butan-1,4-yl)-6,7,12,13-tetrahydro-5-oxo-5H-indolo[2,3-a]pyrrolo[3,4-c]carbazole]  0.503 µM
18. CN(C)[C@H]1CCN(C(=O)OCC2Cn3c4ccccc4c4c5c(c6c7ccccc7n(c6c43)C2)C(=O)NC5)C1 (stereo partly drawn) [Cpd 171, 12,13-(2-{[(3S)-3-dimethylamino-pyrrolidin-1-yl]carbonyloxymethyl}-propan-1,3-yl)-6,7,12,13-tetrahydro-5-oxo-5H-indolo[2,3-a]pyrrolo[3,4-c]carbazole]  0.677 µM
19. CC(C)NC(=O)OC1CCn2c3ccccc3c3c4c(c5c6ccccc6n(c5c32)CC1)C(=O)NC4 (centres unmarked) [Cpd 180, 12,13-[3-(isopropyl-carbamoyloxy)-pentan-1,5-yl]-6,7,12,13-tetrahydro-5-oxo-5H-indolo[2,3-a]pyrrolo[3,4-c]carbazole]  0.706 µM
20. CN1CCC(N(C)Cc2ccc3c(c2)c2c4c(c5c6ccccc6n6c5c2n3CC(O)C(O)C6)CNC4=O)CC1 (centres unmarked) [Cpd 196, 3-{[N-methyl-N-(1-methyl-piperidin-4-yl)]aminomethyl}-12,13-(2,3-dihydroxy-butan-1,4-yl)-6,7,12,13-tetrahydro-5-oxo-5H-indolo[2,3-a]pyrrolo[3,4-c]carbazole]  ~1 µM
21. COCCNC(=O)OC1CCn2c3ccccc3c3c4c(c5c6ccccc6n(c5c32)CC1)C(=O)NC4 (centres unmarked) [Cpd 179, 12,13-{3-[(2-methoxy-ethyl)carbamoyloxy]-pentan-1,5-yl}-6,7,12,13-tetrahydro-5-oxo-5H-indolo[2,3-a]pyrrolo[3,4-c]carbazole]  1.06 µM
22. COc1ccc(CCNC(=O)OC2CCn3c4ccccc4c4c5c(c6c7ccccc7n(c6c43)CC2)C(=O)NC5)cc1OC (centres unmarked) [Cpd 183, 12,13-(3-{[2-(3,4-dimethoxy-phenyl)ethyl]carbamoyloxy}-pentan-1,5-yl)-6,7,12,13-tetrahydro-5-oxo-5H-indolo[2,3-a]pyrrolo[3,4-c]carbazole]  1.27 µM
23. COC[C@H](C)NC(=O)OC1CCn2c3ccccc3c3c4c(c5c6ccccc6n(c5c32)CC1)C(=O)NC4 (stereo partly drawn) [Cpd 182, 12,13-[3-({2-[(1S)-2-methoxy-1-methyl]ethyl}carbamoyloxy)-pentan-1,5-yl]-6,7,12,13-tetrahydro-5-oxo-5H-indolo[2,3-a]pyrrolo[3,4-c]carbazole]  1.67 µM
24. O=C(NC1CCN(Cc2ccccc2)CC1)OC1CCn2c3ccccc3c3c4c(c5c6ccccc6n(c5c32)CC1)C(=O)NC4 (centres unmarked) [Cpd 187, 12,13-{3-[(1-benzyl-piperidin-4-yl)carbamoyloxy]-pentan-1,5-yl}-6,7,12,13-tetrahydro-5-oxo-5H-indolo[2,3-a]pyrrolo[3,4-c]carbazole]  3 µM
25. O=C1NCc2c1c1c3ccccc3n3c1c1c2c2ccccc2n1CCC(OC(=O)N1CCN(c2ccncc2)CC1)CC3 (centres unmarked) [Cpd 184, 12,13-{3-[(4-pyridin-4-yl-piperazin-1-yl)carbonyloxy]-pentan-1,5-yl}-6,7,12,13-tetrahydro-5-oxo-5H-indolo[2,3-a]pyrrolo[3,4-c]carbazole]  4.36 µM
26. O=C1NCc2c1c1c3ccccc3n3c1c1c2c2ccccc2n1CCC(OC(=O)N1CCN(c2ccc(O)cc2)CC1)CC3 (centres unmarked) [Cpd 181, 12,13-(3-{[4-(4-hydroxy-phenyl)piperazin-1-yl]carbonyloxy}-pentan-1,5-yl)-6,7,12,13-tetrahydro-5-oxo-5H-indolo[2,3-a]pyrrolo[3,4-c]carbazole]  7.36 µM
